According to patent publication US4746736A, “Carbapenem antibiotics” (priority 1986, dated 1988):
Values after ≈ are worked out from the molar mass of the structure shown. Where two headings read alike, the source gives them in different places.

Legend:
Format in all cases: cell-based
[1] = system: P. aeruginosa A-9843A; assay: In vitro MIC by tube dilution, P. aeruginosa A-9843A; details: Pseudomonas aeruginosa, A9843A, P. aeruginosa A-9843a; read-out: MIC
[2] = system: S. marcescens A20019; assay: In vitro MIC by tube dilution, S. marcescens A20019; details: Serratia marcescens, read-out: MIC
[3] = system: K. pneumoniae A20468; assay: In vitro MIC by tube dilution, K. pneumoniae A20468; details: Klebsiella pneumoniae, read-out: MIC
[4] = system: S. aureus A-9537; assay: In vitro MIC by tube dilution, S. aureus A-9537; details: Staphylococcus aureus, read-out: MIC
[5] = system: E. cloacae A-9656; assay: In vitro MIC by tube dilution, E. cloacae A-9656; details: Enterobacter cloacae, A9656, E. cloacae A-9656; read-out: MIC
[6] = system: P. morganii A15153; assay: In vitro MIC by tube dilution, P. morganii (M. morganii) A15153; details: Morganella morganii, read-out: MIC
[7] = system: E. coli A15119; assay: In vitro MIC by tube dilution, E. coli A15119; details: Escherichia coli, read-out: MIC
[8] = system: S. faecalis A20688; assay: In vitro MIC by tube dilution, S. faecalis A20688; details: Enterococcus faecalis, A20688, S. faecalis A20688; read-out: MIC
[9] = system: E. coli A20341-1; assay: In vitro MIC by tube dilution, E. coli A20341-1; details: Escherichia coli, A203411, read-out: MIC
[10] = system: K. pneumoniae A-9664; assay: In vitro MIC by tube dilution, K. pneumoniae A-9664; details: Klebsiella pneumoniae, A9664, read-out: MIC
[11] = system: P. mirabilis A-9900; assay: In vitro MIC by tube dilution, P. mirabilis A-9900; details: Proteus mirabilis, A9900, P. mirabilis A-9900; read-out: MIC
[12] = system: P. aeruginosa A21213; assay: In vitro MIC by tube dilution, P. aeruginosa A21213; details: Pseudomonas aeruginosa, A21213, P. aeruginosa A21213; read-out: MIC
[13] = system: P. rettgeri A22424; assay: In vitro MIC by tube dilution, P. rettgeri A22424; details: Providencia rettgeri, A22424, P. rettgeri A22424; read-out: MIC
[14] = system: E. cloacae A-9659; assay: In vitro MIC by tube dilution, E. cloacae A-9659; details: Enterobacter cloacae, A9659, E. cloacae A-9659; read-out: MIC
[15] = system: S. aureus A-9606 (Pen-res.); assay: In vitro MIC by tube dilution, S. aureus A-9606 (Pen-res.); details: Staphylococcus aureus, S. aureus A-9606 (Pen-res); read-out: MIC
[16] = system: S. pyogenes A9604; assay: In vitro MIC by tube dilution, S. pyogenes A9604; details: Streptococcus pyogenes, A9604, S. pyogenes A-9604; read-out: MIC
[17] = system: S. pneumoniae A-9585; assay: In vitro MIC by tube dilution, S. pneumoniae A-9585; details: Streptococcus pneumoniae, A9585, S. pneumoniae A-9585; read-out: MIC
[18] = A9537, S. aureus A-9537, no serum
[19] = A9537, S. aureus A-9537 +50% serum

Row | Compound | MIC [1] [µg/mL] | MIC [2] [µg/mL] | MIC [4, 18] [µg/mL] | MIC [5] [µg/mL] | MIC ([7]; E. coli A15119) [µg/mL] | MIC [9] [µg/mL] | MIC [10] [µg/mL] | MIC [11] [µg/mL] | MIC [13] [µg/mL] | MIC [14] [µg/mL] | MIC ([3]; A20468, K. pneumoniae A20468) [µg/mL] | MIC ([6]; A15153, M. morganii A15153) [µg/mL] | MIC [15] [µg/mL] | MIC [16] [µg/mL] | MIC [17] [µg/mL] | MIC [4, 19] [µg/mL] | MIC ([7]; A15119, E. coli A15119) [µg/mL] | other results
1 | C[C@@H](O)[C@H]1C(=O)N2C(C(=O)[O-])=C(SCc3n(C)cc[n+]3C)C[C@H]12 [Example 9, 3-(N,N'-Dimethylimidazole-2-yl-methanethio)-6α-[1-(R)-hydroxyethyl]-7-oxo-1-azabicyclo(3.2.0)hept-2-ene-2-carboxylate] | 2 (≈ 5.93 µM) | 0.016 (≈ 0.0474 µM) | 0.004 (≈ 0.0119 µM) | 0.03 (≈ 0.0889 µM) | 0.008 (≈ 0.0237 µM) | 0.004 (≈ 0.0119 µM) | 0.016 (≈ 0.0474 µM) | 0.016 (≈ 0.0474 µM) | 0.06 (≈ 0.178 µM) | 0.03 (≈ 0.0889 µM) |  |  |  |  |  |  |  | MIC ([3]; K. pneumoniae A20468): 0.03 µg/mL (≈ 0.0889 µM); MIC ([6]; M. morganii A15153): 0.03 µg/mL (≈ 0.0889 µM); MIC [8]: 0.13 µg/mL (≈ 0.385 µM); MIC [12]: 0.13 µg/mL (≈ 0.385 µM)
2 | C[C@@H](O)[C@H]1C(=O)N2C(C(=O)[O-])=C(SCc3n(C)nc[n+]3C)C[C@H]12 [Example 19, 3-[5-(1,4-Dimethyl-1,2,4-triazolium)methanethio]-6α-[1-(R)-hydroxyethyl]-7-oxo-1-azabicyclo[3.2.0]hept-2-ene-2-carboxylate] |  | 0.03 (≈ 0.0887 µM) | 0.004 (≈ 0.0118 µM) | 0.03 (≈ 0.0887 µM) | 0.008 (≈ 0.0236 µM) | 0.008 (≈ 0.0236 µM) | 0.03 (≈ 0.0887 µM) | 0.03 (≈ 0.0887 µM) | 0.13 (≈ 0.384 µM) | 0.03 (≈ 0.0887 µM) | 0.06 (≈ 0.177 µM) | 0.06 (≈ 0.177 µM) | 0.016 (≈ 0.0473 µM) | 0.002 (≈ 0.00591 µM) | 0.002 (≈ 0.00591 µM) |  |  | MIC [12]: 0.06 µg/mL (≈ 0.177 µM)
3 | C[C@@H](O)[C@H]1C(=O)N2C(C(=O)[O-])=C(SCc3scc[n+]3C)C[C@H]12 [Example 11, 3-[2-(N-Methylthiazolium)methylthio]-6α-[1-(R)-hydroxyethyl]-7-oxo-1-azabicyclo(3.2.0)hept-2-ene-2-carboxylate] |  | 0.06 (≈ 0.176 µM) | 0.004 (≈ 0.0117 µM) | 0.13 (≈ 0.382 µM) |  | 0.03 (≈ 0.0881 µM) | 0.03 (≈ 0.0881 µM) | 0.03 (≈ 0.0881 µM) | 0.13 (≈ 0.382 µM) | 0.06 (≈ 0.176 µM) | 0.13 (≈ 0.382 µM) | 0.06 (≈ 0.176 µM) | 0.016 (≈ 0.047 µM) | 0.002 (≈ 0.00587 µM) | 0.002 (≈ 0.00587 µM) | 0.016 (≈ 0.047 µM) | 0.016 (≈ 0.047 µM) | MIC [12]: 0.13 µg/mL (≈ 0.382 µM)
4 | Cc1sc(CSC2=C(C(=O)[O-])N3C(=O)[C@H]([C@@H](C)O)[C@H]3C2)c(C)[n+]1C [Example 10, 3-(2,3,4,-Trimethylthiazole-5-yl-methanethio)-6α[1-(R)-hydroxyethyl]-7-oxo-1-azabicyclo(3.2.0)hept-2-ene-2-carboxylate] | 32 (≈ 86.8 µM) |  | 0.008 (≈ 0.0217 µM) | 0.13 (≈ 0.353 µM) |  | 0.008 (≈ 0.0217 µM) |  | 0.13 (≈ 0.353 µM) | 0.13 (≈ 0.353 µM) | 0.13 (≈ 0.353 µM) | 0.13 (≈ 0.353 µM) |  | 0.008 (≈ 0.0217 µM) |  |  |  | 0.016 (≈ 0.0434 µM) | 
5 | C[C@@H](O)[C@H]1C(=O)N2C(C(=O)[O-])=C(SCc3n[n+](C)nn3C)C[C@H]12 [Example 20, (1'R,5R,6S) 3-[(1,3-dimethyl-5-tetrazolium)-methylthio]-6-(1-hydroxyethyl)-7-oxo-1-azabicyclo[3.2.0]hept-2-ene-2-carboxylate] | 32 (≈ 94.3 µM) |  |  |  |  |  |  |  | 8 (≈ 23.6 µM) | 8 (≈ 23.6 µM) |  | 8 (≈ 23.6 µM) | > 125 | 0.13 (≈ 0.383 µM) | 0.06 (≈ 0.177 µM) | 2 (≈ 5.89 µM) |  | 
6 | C[C@@H](O)[C@H]1C(=O)N2C(C(=O)[O-])=C(SCc3n(Cc4ccccc4)cc[n+]3C)C[C@H]12 [Example 13, 3-(N-Methyl-N'-benzylimidazole-2-yl-methanethio)-6α-[1-(R)-hydroxyethyl]-7-oxo-1-azabicyclo(3.2.0)hept-2-ene-2-carboxylate] | 32 (≈ 77.4 µM) | 0.016 (≈ 0.0387 µM) | 0.008 (≈ 0.0193 µM) | 0.03 (≈ 0.0726 µM) | 0.004 (≈ 0.00967 µM) | 0.008 (≈ 0.0193 µM) | 0.03 (≈ 0.0726 µM) | 0.016 (≈ 0.0387 µM) |  | 0.06 (≈ 0.145 µM) | 0.13 (≈ 0.314 µM) | 0.016 (≈ 0.0387 µM) | 0.008 (≈ 0.0193 µM) |  |  | 0.016 (≈ 0.0387 µM) |  | MIC [8]: 0.13 µg/mL (≈ 0.314 µM)
7 | C[C@@H](O)[C@H]1C(=O)N2C(C(=O)[O-])=C(SCc3cs[n+](C)n3)C[C@H]12 [Example 16, (5R,6S) 6-(1R-hydroxyethyl)-3-(2-methyl-1,2,3-thiadiazolium-4-ylmethylthio)-7-oxo-1-azabicyclo[3.2.0]hept-2-ene-2-carboxylate] | 0.25 (≈ 0.732 µM) | 0.06 (≈ 0.176 µM) | 0.008 (≈ 0.0234 µM) | 0.06 (≈ 0.176 µM) |  | 0.016 (≈ 0.0469 µM) | 0.06 (≈ 0.176 µM) | 0.06 (≈ 0.176 µM) |  | 0.06 (≈ 0.176 µM) | 0.06 (≈ 0.176 µM) |  | 0.016 (≈ 0.0469 µM) | 0.002 (≈ 0.00586 µM) | 0.002 (≈ 0.00586 µM) | 0.03 (≈ 0.0879 µM) | 0.016 (≈ 0.0469 µM) | 
8 | Cc1scc(CSC2=C(C(=O)[O-])N3C(=O)[C@H]([C@@H](C)O)[C@H]3C2)[n+]1C [Example 8, 3-(2-Methyl-N-methylthiazole-4-yl-methanethio)-6α-[1-(R)-hydroxyethyl]-7-oxo-1-azabicyclo(3.2.0)hept-ene-2-carboxylate] | 1 (≈ 2.82 µM) | 0.06 (≈ 0.169 µM) | 0.008 (≈ 0.0226 µM) | 0.06 (≈ 0.169 µM) |  | 0.03 (≈ 0.0846 µM) | 0.03 (≈ 0.0846 µM) | 0.13 (≈ 0.367 µM) | 0.13 (≈ 0.367 µM) | 0.13 (≈ 0.367 µM) | 0.13 (≈ 0.367 µM) |  | 0.03 (≈ 0.0846 µM) | 0.002 (≈ 0.00564 µM) | 0.002 (≈ 0.00564 µM) | 0.03 (≈ 0.0846 µM) | 0.016 (≈ 0.0451 µM) | 
9 | C[C@@H](O)[C@H]1C(=O)N2C(C(=O)[O-])=C(SCc3cn(C)n[n+]3CC(=O)O)C[C@H]12 [Example 17, Potassium 3-[5-(1-carboxylatomethyl-3-methyl-1,2,3-triazolium)-methanethio]-6α-[1-(R)-hydroxyethyl]-7-oxo-1-azabicyclo[3.2.0]hept-2-ene-2-carboxylate] | > 63 | 0.13 |  |  |  |  | 0.13 | 0.13 |  |  |  |  |  | 0.016 | 0.016 |  |  | 
10 | C[C@@H](O)[C@H]1C(=O)N2C(C(=O)[O-])=C(SCc3ccc[n+](C)c3)C[C@H]12 [Example 3, 3-(N-Methylpyridine-3-yl-methanethio)-6α-[1-(R)-hydroxyethyl]-7-oxo-1-azabicyclo(3.2.0)hept-2-ene-2-carboxylate] | 2 (≈ 5.98 µM) | 0.016 (≈ 0.0478 µM) | 0.016 (≈ 0.0478 µM) | 0.13 (≈ 0.389 µM) | 0.03 (≈ 0.0897 µM) | 0.016 (≈ 0.0478 µM) | 0.06 (≈ 0.179 µM) | 0.13 (≈ 0.389 µM) |  | 0.13 (≈ 0.389 µM) | 0.06 (≈ 0.179 µM) | 0.13 (≈ 0.389 µM) | 0.016 (≈ 0.0478 µM) | 0.002 (≈ 0.00598 µM) | 0.002 (≈ 0.00598 µM) | 0.016 (≈ 0.0478 µM) |  | 
11 | Cc1c(CSC2=C(C(=O)[O-])N3C(=O)[C@H]([C@@H](C)O)[C@H]3C2)ccc[n+]1C [Example 14, 3-(2-Methyl-N-methylpyridine-3-yl-methanethio)-6α-[1-(R)-hydroxyethyl]-7-oxo-1-azabicyclo(3.2.0)hept-2-ene-2-carboxylate] | 8 (≈ 23 µM) | 0.016 (≈ 0.0459 µM) | 0.008 (≈ 0.023 µM) | 0.03 (≈ 0.0861 µM) | 0.008 (≈ 0.023 µM) | 0.008 (≈ 0.023 µM) | 0.03 (≈ 0.0861 µM) | 0.016 (≈ 0.0459 µM) | 0.06 (≈ 0.172 µM) | 0.03 (≈ 0.0861 µM) |  |  | 0.016 (≈ 0.0459 µM) |  |  | 0.03 (≈ 0.0861 µM) |  | MIC ([3]; K. pneumoniae A20468): 0.03 µg/mL (≈ 0.0861 µM); MIC ([6]; M. morganii A15153): 0.03 µg/mL (≈ 0.0861 µM); MIC [8]: 0.13 µg/mL (≈ 0.373 µM)
12 | C[C@@H](O)[C@H]1C(=O)N2C(C(=O)[O-])=C(SCc3cccc[n+]3C)C[C@H]12 [Example 4, 3-(N-Methylpyridine-2-yl-methanethio)-6α-[1-(R)-hydroxyethyl]-7-oxo-1-azabicyclo(3.2.0)hept-2-ene-2-carboxylate] | 2 (≈ 5.98 µM) |  | 0.008 (≈ 0.0239 µM) |  |  | 0.016 (≈ 0.0478 µM) |  |  |  |  |  | 0.016 (≈ 0.0478 µM) | 0.016 (≈ 0.0478 µM) |  | 0.002 (≈ 0.00598 µM) |  | 0.016 (≈ 0.0478 µM) | 
